Data from publication PMC7031696 (Cell chemical biology, 2019).
Entries after “also recorded” stand apart in the source; their conditions may differ. Read-outs that look alike come from different tables or passages of the source.

Assays:
[1] = system: Plasmodium falciparum 3D7-A10 parasites; assay: Stage specificity assay (8-h exposure of synchronized stages, IC50^8h); format: cell-based; settings: for IC50: Plasmodium falciparum
[2] = system: asynchronous 3D7-A10 parasite cultures; assay: Standard 72-h exposure asexual blood stage susceptibility assay (IC50^72h); format: cell-based, Plasmodium falciparum; settings: Plasmodium falciparum, 3D7, 72 h, read-out: Overall (72hr assay) Mean IC50 (IC50^72h)
[3] = system: 3D7-MR4 trophozoite parasite-infected RBCs; assay: Metabolomic profiling (hydrophilic metabolite changes, UHPLC-MS); format: cell-based, Plasmodium falciparum

CCCCN(CCCC)CC(O)c1cc(Cl)cc2c1-c1ccc(Cl)cc1/C2=C/c1ccc(Cl)cc1 (centres unmarked) [Lumefantrine, reference compound]
Ratio lowest IC50 8hr/IC50 72hr ([1]; 3D7-A10): 11.6
IC50 ([1]; 3D7, read-out: Early rings Mean IC50 (IC50^8h), 8-h exposure 0–8 hr, 3D7-A10, survival at 60 h): 15.4 nM
IC50 ([1]; 3D7, read-out: Early trophozoites Mean IC50 (IC50^8h), 8-h exposure 16–24 hr, 3D7-A10, survival at 60 h): 19.5 nM
IC50 ([1]; 3D7, read-out: IC50^8h values, text summary of Table S1): < 300 nM
IC50 ([1]; 3D7, read-out: Late rings Mean IC50 (IC50^8h), 8-h exposure 8–16 hr, 3D7-A10, survival at 60 h): 15.8 nM
IC50 ([1]; 3D7, read-out: Late trophozoites Mean IC50 (IC50^8h), 8-h exposure 24–32 hr, 3D7-A10, survival at 60 h): 22.3 nM
IC50 ([1]; 3D7, read-out: Schizonts Mean IC50 (IC50^8h), 8-h exposure 32–40 hr, 3D7-A10, survival at 60 h): 81 nM
Stage of peak activity (Figure 6) ([1]; period when the parasite was most susceptible (lowest IC50^8h)): ring and trophozoite stages; also recorded: both rings and trophozoites
IC50 [2]: 1.3 nM
peptide levels (hemoglobin catabolism signature) ([3]; 10 × IC50^72h, 2.5 hr, trophozoites): minor peptide increases
Log2(fold changes) 3-phosphoglycerate ([3]; metabolite 3-phosphoglycerate, log2 fold change): 0.2561
Log2(fold changes) 4-Pyridoxic acid ([3]; metabolite 4-Pyridoxic acid, log2 fold change): 0.0070
Log2(fold changes) 4-aminobutyrate ([3]; metabolite 4-aminobutyrate, log2 fold change): -0.1610
Log2(fold changes) 4-phosphopantetheine ([3]; metabolite 4-phosphopantetheine, log2 fold change): 0.0000
Log2(fold changes) 4-phosphopantothenate ([3]; metabolite 4-phosphopantothenate, log2 fold change): 0.0324
Log2(fold changes) 5-aminopentanoic acid ([3]; metabolite 5-aminopentanoic acid, log2 fold change): 0.0000
Log2(fold changes) 5-methyl-THF ([3]; metabolite 5-methyl-THF, log2 fold change): 0.0000
Log2(fold changes) 5-phosphoribosyl-1-pyrophosphate ([3]; metabolite 5-phosphoribosyl-1-pyrophosphate, log2 fold change): 0.0000
Log2(fold changes) 6-phospho-D-gluconate ([3]; metabolite 6-phospho-D-gluconate, log2 fold change): -0.0221
Log2(fold change) HVDD ([3]; metabolite HVDD): 0.0000
Log2(fold change) Hydroxyisocaproic acid ([3]; metabolite Hydroxyisocaproic acid): 0.0000
Log2(fold change) IDP ([3]; metabolite IDP): 0.0726
Log2(fold change) IMP ([3]; metabolite IMP): 0.0056
Log2(fold change) Inositol ([3]; metabolite Inositol): 0.0000
Log2(fold change) Isopentyl-PP ([3]; metabolite Isopentyl-PP): 0.0000
Log2(fold change) L-arginino-succinate ([3]; metabolite L-arginino-succinate): -0.9519
Log2(fold change) LD ([3]; metabolite LD): -0.1057
Log2(fold change) Myristoyl/tetradecanoyl-CoA ([3]; metabolite Myristoyl/tetradecanoyl-CoA): 0.0333
Log2(fold change) N-Acetyl-L-alanine ([3]; metabolite N-Acetyl-L-alanine): -0.2647
Log2(fold change) N-acetyl-L-ornithine ([3]; metabolite N-acetyl-L-ornithine): -0.6357
Log2(fold change) N-acetyl-glucosamine-1/6-phosphate ([3]; metabolite N-acetyl-glucosamine-1/6-phosphate): 0.0000
Log2(fold change) N-acetyl-glutamate ([3]; metabolite N-acetyl-glutamate): -0.0437
Log2(fold change) N-acetyl-glutamine ([3]; metabolite N-acetyl-glutamine): 0.0000
Log2(fold change) N-carbamoyl-L-aspartate ([3]; metabolite N-carbamoyl-L-aspartate): -0.1460
Log2(fold change) NAD+ ([3]; metabolite NAD+): -0.0402
Log2(fold change) NADH ([3]; metabolite NADH): 0.0000
Log2(fold change) NADP+ ([3]; metabolite NADP+): -0.0151
Log2(fold change) NADPH ([3]; metabolite NADPH): -0.2368
Log2(fold change) O-acetyl-L-serine ([3]; metabolite O-acetyl-L-serine): 0.0000
Log2(fold change) Octoluse 8/1P ([3]; metabolite Octoluse 8/1P): -0.0627
Log2(fold change) Octoluse Bisphosphate ([3]; metabolite Octoluse Bisphosphate): -0.2224
Log2(fold change) PD ([3]; metabolite PD): -0.6715
Log2(fold change) PE ([3]; metabolite PE): -0.8261
Log2(fold change) PEE ([3]; metabolite PEE): -0.8026
Log2(fold change) PEEK ([3]; metabolite PEEK): -1.0553
Log2(fold change) PVNF ([3]; metabolite PVNF): -1.0323
Log2(fold change) Pyroglutamic acid ([3]; metabolite Pyroglutamic acid): -0.2992
Log2(fold change) Pyrophosphate ([3]; metabolite Pyrophosphate): 0.0000
Log2(fold change) Ribose-5-phosphate ([3]; metabolite Ribose-5-phosphate): -0.3541
Log2(fold change) S-adenosyl-L-homocysteine ([3]; metabolite S-adenosyl-L-homocysteine): -0.4489
Log2(fold change) S-adenosyl-L-methioninamine ([3]; metabolite S-adenosyl-L-methioninamine): 0.0000
Log2(fold change) S-adenosyl-L-methionine ([3]; metabolite S-adenosyl-L-methionine): 0.0000
Log2(fold change) S-methyl-5'-thioadenosine ([3]; metabolite S-methyl-5'-thioadenosine): 0.0780
Log2(fold change) SD ([3]; metabolite SD): -0.5378
Log2(fold change) SDL ([3]; metabolite SDL): -0.2618
Log2(fold change) SID ([3]; metabolite SID): -0.7176
Log2(fold change) Sedoheptulose bisphosphate ([3]; metabolite Sedoheptulose bisphosphate): -0.0691
Log2(fold change) Thiamine pyrophosphate ([3]; metabolite Thiamine pyrophosphate): 0.0528
Log2(fold changes) UDP-D-glucose ([3]; metabolite UDP-D-glucose, log2 fold change): 0.0221
Log2(fold changes) UDP-D-glucuronate ([3]; metabolite UDP-D-glucuronate, log2 fold change): 0.0757
Log2(fold changes) UDP-N-acetyl-glucosamine ([3]; metabolite UDP-N-acetyl-glucosamine, log2 fold change): -0.0029
Log2(fold changes) UDP ([3]; metabolite UDP, log2 fold change): 0.0413
Log2(fold changes) UMP ([3]; metabolite UMP, log2 fold change): 0.0984
Log2(fold changes) UTP ([3]; metabolite UTP, log2 fold change): 0.0275
Log2(fold change) hydroxyphenylpyruvate ([3]; metabolite hydroxyphenylpyruvate): 0.0000
Log2(fold change) hydroxyproline/Aminolevulinate ([3]; metabolite hydroxyproline/Aminolevulinate): -0.1667
Log2(fold change) hypoxanthine ([3]; metabolite hypoxanthine): 0.0000
Log2(fold change) indole ([3]; metabolite indole): 0.0000
Log2(fold change) inosine ([3]; metabolite inosine): -0.7307
Log2(fold change) isoleucine ([3]; metabolite isoleucine): -0.3373
Log2(fold change) lactate ([3]; metabolite lactate): -0.7427
Log2(fold change) leucine ([3]; metabolite leucine): -0.5467
Log2(fold change) lysine ([3]; metabolite lysine): -0.9287
Log2(fold change) malate ([3]; metabolite malate): -0.2859
Log2(fold change) maleic acid ([3]; metabolite maleic acid): -0.2558
Log2(fold change) methionine ([3]; metabolite methionine): -0.5836
Log2(fold change) myo-inositol ([3]; metabolite myo-inositol): -1.2017
Log2(fold change) nicotinamide mononucleotide ([3]; metabolite nicotinamide mononucleotide): -0.1717
Log2(fold change) nicotinate ([3]; metabolite nicotinate): -0.0538
Log2(fold change) ornithine ([3]; metabolite ornithine): 0.0000
Log2(fold change) orotate ([3]; metabolite orotate): -0.5668
Log2(fold change) orotidine-5'-phosphate ([3]; metabolite orotidine-5'-phosphate): -1.0458
Log2(fold change) oxaloacetate ([3]; metabolite oxaloacetate): 0.0000
Log2(fold change) p-aminobenzoate ([3]; metabolite p-aminobenzoate): 0.0000
Log2(fold change) p-hydroxybenzoate ([3]; metabolite p-hydroxybenzoate): 0.0000
Log2(fold change) pantothenate ([3]; metabolite pantothenate): 0.0000
Log2(fold change) phenylalanine ([3]; metabolite phenylalanine): -0.5609
Log2(fold change) phenylpyruvate ([3]; metabolite phenylpyruvate): 0.0000
Log2(fold change) phosphoenolpyruvate ([3]; metabolite phosphoenolpyruvate): 0.3731
Log2(fold change) prephenate ([3]; metabolite prephenate): 0.0000
Log2(fold change) proline ([3]; metabolite proline): -0.4274
Log2(fold change) pyridoxine ([3]; metabolite pyridoxine): -0.6579
Log2(fold change) pyruvate ([3]; metabolite pyruvate): -0.6264
Log2(fold change) riboflavin ([3]; metabolite riboflavin): -0.1882
Log2(fold change) ribose ([3]; metabolite ribose): -0.6495
Log2(fold change) ribose-phosphate ([3]; metabolite ribose-phosphate): -0.3829
Log2(fold change) ribulose-5-phosphate ([3]; metabolite ribulose-5-phosphate): -0.2140
Log2(fold change) serine ([3]; metabolite serine): -0.3504
Log2(fold change) sn-glycerol-3-phosphate ([3]; metabolite sn-glycerol-3-phosphate): 0.0117
Log2(fold change) succinate/Methylmalonic acid ([3]; metabolite succinate/Methylmalonic acid): 0.0257
Log2(fold change) succinyl-CoA/methylmalonyl-CoA ([3]; metabolite succinyl-CoA/methylmalonyl-CoA): 0.0000
Log2(fold change) taurine ([3]; metabolite taurine): -0.1171
Log2(fold change) thiamine ([3]; metabolite thiamine): -0.2236
Log2(fold change) threonine/homoserine ([3]; metabolite threonine/homoserine): -0.3606
Log2(fold change) thymidine ([3]; metabolite thymidine): 0.0000
Log2(fold changes) thymine ([3]; metabolite thymine, log2 fold change): 0.0000
Log2(fold changes) trehalose-6-Phosphate ([3]; metabolite trehalose-6-Phosphate, log2 fold change): 0.0000
Log2(fold changes) tryptophan ([3]; metabolite tryptophan, log2 fold change): -0.3412
Log2(fold changes) tyrosine ([3]; metabolite tyrosine, log2 fold change): -0.2808
Log2(fold changes) uridine ([3]; metabolite uridine, log2 fold change): 0.0000
